Here are results for five compounds from the NIST ThermoML archive (doi:10.1016/j.jct.2005.08.018).

The nature of data set [1]: mn = molality of the nth substance listed, in mol/kg. The settings on record: 298.15 K, 101 kPa, Liquid.
The conditions of data set [2]: 298.15 K; 101 kPa; Liquid.

± gives the expanded uncertainty stated by the source.

Broadly, the mass density is mass per unit of volume. For orientation: speed of sound means how fast a sound wave travels through the sample.

In the case of `CCCC[N+](CCCC)(CCCC)CCCC.[Br-]` [tetrabutylammonium bromide] + c1ccccc1, the mass density in data set [1] (m1 = 0.0154) came to 874.64 ± 0.78 kg/m3; in data set [1] (m1 = 0.0485), 876.48 ± 0.78 kg/m3; in data set [1] (m1 = 0.0662), 877.4 ± 0.77 kg/m3; in data set [1] (m1 = 0.0827), 878.36 ± 0.77 kg/m3; in data set [1] (m1 = 0.1724) it was 883.19 ± 0.76 kg/m3; in data set [1] (m1 = 0.3622) it was 893.1 ± 0.74 kg/m3. Further, the mass density came out at 903.19 ± 0.72 kg/m3 in data set [1] (m1 = 0.5773) and 913.08 ± 0.7 kg/m3 in data set [1] (m1 = 0.8062). Further, the speed of sound is listed as 1298.6 ± 2.8 m/s in data set [1] (m1 = 0.0154); 1299.4 ± 2.8 m/s in data set [1] (m1 = 0.0485); 1300.6 ± 2.8 m/s in data set [1] (m1 = 0.0662); 1300.8 ± 2.8 m/s in data set [1] (m1 = 0.0827); 1301.4 ± 2.8 m/s in data set [1] (m1 = 0.1724); 1310.1 ± 2.8 m/s in data set [1] (m1 = 0.3622). The speed of sound in data set [1] (m1 = 0.5773) was 1316.4 ± 2.8 m/s; in data set [1] (m1 = 0.8062), 1324.6 ± 2.9 m/s.
With `c1ccccc1` [benzene] + CCCC[N+](CCCC)(CCCC)CCCC.[Br-], in data set [1] (m2 = 0), the mass density stood at 873.71 ± 0.78 kg/m3 and the speed of sound is on record as 1298.2 ± 2.8 m/s.
As for `ClC(Cl)(Cl)Cl` [tetrachloromethane] + CCCC[N+](CCCC)(CCCC)CCCC.[Br-], the mass density in data set [1] (m2 = 0) was found to be 1584.35 ± 2.2 kg/m3; in data set [1] (m2 = 0.0289), 1578.53 ± 2.2 kg/m3; in data set [1] (m2 = 0.0459) it was 1575.17 ± 2.2 kg/m3; in data set [1] (m2 = 0.0609), 1572.21 ± 2.2 kg/m3; in data set [1] (m2 = 0.0759), 1569.3 ± 2.2 kg/m3; in data set [1] (m2 = 0.1041), 1563.88 ± 2.2 kg/m3. Besides, the results for the mass density in data set [1] (m2 = 0.3475), in data set [1] (m2 = 0.5626) and in data set [1] (m2 = 0.8165) were 1520.79 ± 2 kg/m3, 1488.36 ± 1.9 kg/m3 and 1456.84 ± 1.8 kg/m3, respectively. The speed of sound is on record as 921.7 ± 2.4 m/s in data set [1] (m2 = 0); 926.4 ± 2.4 m/s in data set [1] (m2 = 0.0289); 929.4 ± 2.4 m/s in data set [1] (m2 = 0.0459); 931.7 ± 2.4 m/s in data set [1] (m2 = 0.0609); 933.7 ± 2.4 m/s in data set [1] (m2 = 0.0759); 939.5 ± 2.4 m/s in data set [1] (m2 = 0.1041). The speed of sound was 982 ± 2.4 m/s in data set [1] (m2 = 0.3475), 1017.5 ± 2.5 m/s in data set [1] (m2 = 0.5626) and 1057.6 ± 2.5 m/s in data set [1] (m2 = 0.8165).
Take `c1ccccc1` [benzene]: in data set [2], the mass density was 873.71 ± 0.78 kg/m3 and the speed of sound stood at 1298.2 ± 2.8 m/s.
In the case of `ClC(Cl)(Cl)Cl` [tetrachloromethane], in data set [2], the mass density came out at 1584.35 ± 2.2 kg/m3 and the speed of sound was found to be 921.7 ± 2.4 m/s.
